According to patent US10004697B2, “In vivo sperm selection for treating male infertility” (M Pharmaceutical USA Inc., priority 2016, dated 2018):

System: women
Experiment: Topical menthol applied to the vulva: increase of vaginal lubrication in women
Assay type: in vivo, human
Details: applied to the vulva (including the clitoris)
Text: Abnormal sperm quality in combination with inadequate vaginal lubrication can cause infertility. The menthol-stimulated vaginal plasma transudate 30 that is generated by use of the inventive method compensates for lubrication insufficiency that may be present in the female sexual partner of the infertile male. […] Since most infertility is a combination of female and male factors, the production of this vaginal transudate 30 can aid conception rates of both infertile males and females. […] Therefore the sperm, even if they somehow are able to be capacitated, have little or no protective and nourishing substrate in which they can swim up through the external os 24 and into the cervical canal 21. The odds of fertilization are thus extremely low.

`CC1CCC(C(C)C)C(O)C1` (centres unmarked) [menthol] was tested. Which “women in whom lubrication is increased” value (all women) did it give?
The value was 80%.

And the “women in whom lubrication is increased” value (women over 35)?
The value was 90%.
